From ChEMBL document CHEMBL4368923 (J Med Chem, 2019)
Converted amounts (≈) assume the structure as drawn.

Experiments:
[1] = system: Human immunodeficiency virus 1; experiment: Antiviral activity against HIV1 3B infected in human MT4 cells assessed as inhibition of virus-induced cytotoxicity after 5 days by MTT assay; type: functional, organism-based; details: Human immunodeficiency virus 1, 3B, MT4, 120 h
[2] = system: Human immunodeficiency virus 1; experiment: Antiviral activity against HIV1 RES056 harboring reverse transcriptase K103N/Y181C double mutant infected in human MT4 cells assessed as inhibition of virus-induced cytotoxicity after 5 days by MTT assay; type: functional, organism-based; details: Human immunodeficiency virus 1, RES056, MT4, 120 h
[3] = Selectivity index, ratio of CC50 for human MT4 cells to EC50 for HIV1 3B infected in human MT4 cells
[4] = Selectivity index, ratio of CC50 for human MT4 cells to EC50 for HIV1 RES056 harboring reverse transcriptase K103N/Y181C double mutant infected in human MT4 cells
[5] = Cytotoxicity against human MT4 cells assessed as reduction in cell viability after 5 days by MTT assay; type: cell-based
[6] = target: Human immunodeficiency virus type 1 reverse transcriptase (Human immunodeficiency virus 1, UniProt Q72547); experiment: Inhibition of HIV1 reverse transcriptase p66/p51 using poly(rA)/oligo(dT)16 as template/primer measured after 40 mins by pico-green based spectrofluorometric analysis
[7] = system: Human immunodeficiency virus 1; experiment: Antiviral activity against HIV1 harboring reverse transcriptase E138K mutant infected in human MT4 cells assessed as inhibition of virus-induced cytotoxicity after 5 days by MTT assay; type: functional, organism-based; details: Human immunodeficiency virus 1, MT4, 120 h
[8] = system: Human immunodeficiency virus 1; experiment: Antiviral activity against HIV1 harboring reverse transcriptase L100I mutant infected in human MT4 cells assessed as inhibition of virus-induced cytotoxicity after 5 days by MTT assay; type: functional, organism-based; details: Human immunodeficiency virus 1, MT4, 120 h
[9] = system: Human immunodeficiency virus 1; experiment: Antiviral activity against HIV1 harboring reverse transcriptase K103N mutant infected in human MT4 cells assessed as inhibition of virus-induced cytotoxicity after 5 days by MTT assay; type: functional, organism-based; details: Human immunodeficiency virus 1, MT4, 120 h
[10] = system: Human immunodeficiency virus 1; experiment: Antiviral activity against HIV1 harboring reverse transcriptase Y181C mutant infected in human MT4 cells assessed as inhibition of virus-induced cytotoxicity after 5 days by MTT assay; type: functional, organism-based; details: Human immunodeficiency virus 1, MT4, 120 h
[11] = system: Human immunodeficiency virus 1; experiment: Antiviral activity against HIV1 harboring reverse transcriptase Y188L mutant infected in human MT4 cells assessed as inhibition of virus-induced cytotoxicity after 5 days by MTT assay; type: functional, organism-based; details: Human immunodeficiency virus 1, MT4, 120 h
[12] = system: Human immunodeficiency virus 1; experiment: Antiviral activity against HIV1 harboring reverse transcriptase F227L/V106A double mutant infected in human MT4 cells assessed as inhibition of virus-induced cytotoxicity after 5 days by MTT assay; type: functional, organism-based; details: Human immunodeficiency virus 1, MT4, 120 h
[13] = Solubility of the compound in deionized water at pH 7
[14] = Solubility in water at pH 7; type: physicochemical

| SMILES | EC50 ([1]; read-out: EC50) [µM] | EC50 [2] [µM] | selectivity ratio ([3]; MT4 cells) | selectivity ratio ([4]; MT4 cells) | EC50 ([1]; read-out: pEC50 (converted)) [µM] | CC50 at 120 h [5] [µM] | IC50 [6] [µM] | EC50 [7] [µM] | EC50 [8] [µM] | EC50 [9] [µM] | EC50 [10] [µM] | EC50 [11] [µM] | EC50 [12] [µM] | solubility [13] [mg/mL] | solubility [14] [mg/mL] | selectivity ratio [3] | selectivity ratio [4] |
| --- | --- | --- | --- | --- | --- | --- | --- | --- | --- | --- | --- | --- | --- | --- | --- | --- | --- |
| Cc1cc(C#N)cc(C)c1Oc1cc(Cl)nc(Nc2ccc(CN3CCOCC3)cc2)c1 | 0.93 | > 6.9 | 7 | < 1 | – | – | – | – | – | – | – | – | – | – | – | – | – |
| Cc1cc(C)c(Oc2nc(N)nc(Nc3ccc(CN4CCOCC4)cc3)n2)c(C)c1 | 0.12 | > 12.9 | ≥ 105 | 1 | 0.12 | ≥ 12.9 | 0.442 | – | – | – | – | – | – | – | – | – | – |
| Cc1cc(C#N)cc(C)c1Oc1ccnc(Nc2ccc(CN3CCN(S(C)(=O)=O)CC3)cc2)n1 | 0.0072 | > 3.43 | 475 | < 1 | 0.00724 | 3.43 | 0.049 | 0.089 | 0.11 | 0.23 | 0.47 | > 5.22 | 1.03 | – | – | – | – |
| Cc1cc(C#N)cc(C)c1Oc1ccnc(Nc2ccc(CN3CCC(NC(=O)OC(C)(C)C)CC3)cc2)n1 | 0.2 | > 4.34 | 21 | < 1 | 0.2 | 4.34 | 0.413 | – | – | – | – | – | – | – | – | – | – |
| Cc1cc(C#N)cc(C)c1Oc1ccnc(Nc2ccc(CN3CCC(NS(N)(=O)=O)CC3)cc2)n1 | 0.092 | > 3.72 | 40 | < 1 | 0.0912 | 3.72 | 0.152 | 0.45 | 2.15 | 0.5 | 6.54 | > 6.97 | ≥ 6.82 | – | – | – | – |
| Cc1cc(C#N)cc(C)c1Oc1ccnc(Nc2ccc(CN3CCOCC3)cc2)n1 | 0.011 | > 23 | 2040 | < 1 | 0.011 | 23 | 0.042 | 0.14 | 0.41 | 0.068 | 0.91 | 4.93 | 1.8 | 0.0334 (≈ 80.4 µM) | – | – | – |
| Cc1cc(/C=C/C#N)cc(C)c1Oc1ccnc(Nc2ccc(CN3CCC(NC(=O)OC(C)(C)C)CC3)cc2)n1 | 0.026 | > 3.55 | 138 | < 1 | 0.0257 | 3.55 | 0.499 | 0.15 | 0.28 | 0.068 | 0.57 | > 4.27 | ≥ 1.14 | – | – | – | – |
| Cc1cc(C#N)cc(C)c1Oc1ccnc(Nc2ccc(CNC3CCN(C(=O)OC(C)(C)C)CC3)cc2)n1 | 0.19 | > 3.51 | 19 | < 1 | 0.191 | 3.51 | 0.277 | – | – | – | – | – | – | – | – | – | – |
| Cc1cc(C#N)cc(C)c1Oc1ccnc(Nc2ccc(CN3CCC(NS(C)(=O)=O)CC3)cc2)n1 | 0.055 | > 18.1 | 331 | < 1 | 0.055 | 18.1 | 0.079 | 0.38 | 0.7 | 0.46 | 2.6 | ≥ 7.8 | 3.23 | – | – | – | – |
| Cc1cc(/C=C/C#N)cc(C)c1Oc1ccnc(Nc2ccc(CN3CCN(C(=O)OC(C)(C)C)CC3)cc2)n1 | 0.015 | > 3.04 | 209 | < 1 | 0.0151 | 3.04 | 0.297 | 0.13 | 0.2 | 0.02 | 0.42 | > 4.03 | 0.15 | – | – | – | – |
| Cc1cc(/C=C/C#N)cc(C)c1Oc1ccnc(Nc2ccc(CN3CCC(NS(C)(=O)=O)CC3)cc2)n1 | 0.0069 | > 6.99 | 1020 | < 1 | 0.00692 | 6.99 | 0.076 | 0.036 | 0.13 | 0.025 | 0.33 | 8.35 | 0.47 | – | – | – | – |
| O=C1Nc2ccc(Cl)cc2[C@@](C#CC2CC2)(C(F)(F)F)O1 [EFAVIRENZ] | – | 0.24 | – | – | – | > 6.34 | – | 0.006 | 0.052 | 0.089 | – | 0.24 | 0.27 | – | – | – | – |
| Cc1cc(C#N)cc(C)c1Oc1nc(Nc2ccc(C#N)cc2)nc(N)c1Br [ETRAVIRINE] | 0.0035 | 0.05 | – | – | 0.00347 | > 4.59 | – | – | 0.0074 | 0.0039 | 0.021 | 0.027 | 0.026 | < 0.001 | < 0.001 | – | – |
| Nc1ccn([C@@H]2CS[C@H](CO)O2)c(=O)n1 [LAMIVUDINE] | 6.41 | – | > 14 | – | – | > 87.2 | – | – | – | – | – | – | – | – | – | – | – |
| Cc1ccnc2c1NC(=O)c1cccnc1N2C1CC1 [NEVIRAPINE] | 0.24 | > 15 | – | – | 0.24 | > 15 | – | – | 1.64 | 10.9 | > 15 | > 15 | > 15 | – | – | – | – |
| Cc1cc(/C=C/C#N)cc(C)c1Nc1ccnc(Nc2ccc(C#N)cc2)n1 [RILPIVIRINE] | 0.0013 | – | – | – | 0.00129 | 4.38 | – | – | – | – | – | – | – | – | – | – | – |
| Cc1cn([C@H]2C[C@H](N=[N+]=[N-])[C@@H](CO)O2)c(=O)[nH]c1=O [ZIDOVUDINE] | – | 0.015 | – | – | – | > 7.48 | – | 0.014 | 0.0036 | 0.011 | 0.0056 | 0.0051 | 0.0062 | – | – | > 704 | > 515 |
